In ChEMBL document CHEMBL1201862, “PubChem BioAssay data set” (2004):
Where a name gives a salt, the structure may show the parent alone. Blank lines part the entries; values can stand above or below the compound they belong to. Activity calls are given as the source filed them.

Key:
[1] = target: T1, Kappa-type opioid receptor (Homo sapiens, UniProt P41145); assay: SAR analysis of Antagonists of the Kappa Opioid Receptor (KOR) using an Image-Based Assay - Set 2. [Related pubchem assays (depositor defined):AID1777, AID1785, AID1786, AID1966, AID2133, AID2136, AID2284, AID2285, AID2348]; format: functional
T1 sequence (P41145 whole entry): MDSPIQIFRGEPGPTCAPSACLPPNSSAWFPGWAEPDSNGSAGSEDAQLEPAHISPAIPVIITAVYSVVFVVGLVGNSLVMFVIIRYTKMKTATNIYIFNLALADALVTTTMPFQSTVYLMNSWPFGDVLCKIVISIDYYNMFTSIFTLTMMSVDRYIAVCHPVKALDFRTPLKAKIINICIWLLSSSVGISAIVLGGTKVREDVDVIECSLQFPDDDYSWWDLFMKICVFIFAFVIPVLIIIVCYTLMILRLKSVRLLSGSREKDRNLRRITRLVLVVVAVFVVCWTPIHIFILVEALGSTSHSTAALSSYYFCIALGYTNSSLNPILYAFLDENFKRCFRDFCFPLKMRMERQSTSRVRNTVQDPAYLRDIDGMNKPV

Mu-type opioid receptor [2] = target: T2, Mu-type opioid receptor (Homo sapiens, UniProt P35372); assay: SAR Analysis of Antagonists of the MOR Receptor using an Image-Based Assay - Set 2. [Related pubchem assays (depositor defined):AID1777, AID1785, AID1786, AID1966, AID2133, AID2136, AID2284, AID2285, AID2420]; format: functional
T2 sequence (P35372 whole entry): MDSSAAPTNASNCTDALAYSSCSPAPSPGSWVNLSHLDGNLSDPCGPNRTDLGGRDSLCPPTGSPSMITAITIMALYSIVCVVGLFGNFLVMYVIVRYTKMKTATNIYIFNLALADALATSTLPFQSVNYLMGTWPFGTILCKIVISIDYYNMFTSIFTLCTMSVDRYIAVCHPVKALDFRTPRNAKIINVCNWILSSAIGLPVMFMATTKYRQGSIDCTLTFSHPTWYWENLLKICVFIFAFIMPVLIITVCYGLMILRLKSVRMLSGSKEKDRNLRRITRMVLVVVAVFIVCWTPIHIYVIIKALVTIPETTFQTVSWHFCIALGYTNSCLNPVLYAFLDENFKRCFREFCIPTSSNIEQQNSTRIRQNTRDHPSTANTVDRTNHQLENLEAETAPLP

[3] = target: T3, Delta-type opioid receptor (Homo sapiens, UniProt P41143); assay: SAR Analysis of Agonists of the DOR Receptor using an Image-Based Assay - Set 2. [Related pubchem assays (depositor defined):AID1777, AID1785, AID1786, AID1966, AID2133, AID2136, AID2284, AID2285, AID2370]; format: functional
T3 sequence (P41143 whole entry): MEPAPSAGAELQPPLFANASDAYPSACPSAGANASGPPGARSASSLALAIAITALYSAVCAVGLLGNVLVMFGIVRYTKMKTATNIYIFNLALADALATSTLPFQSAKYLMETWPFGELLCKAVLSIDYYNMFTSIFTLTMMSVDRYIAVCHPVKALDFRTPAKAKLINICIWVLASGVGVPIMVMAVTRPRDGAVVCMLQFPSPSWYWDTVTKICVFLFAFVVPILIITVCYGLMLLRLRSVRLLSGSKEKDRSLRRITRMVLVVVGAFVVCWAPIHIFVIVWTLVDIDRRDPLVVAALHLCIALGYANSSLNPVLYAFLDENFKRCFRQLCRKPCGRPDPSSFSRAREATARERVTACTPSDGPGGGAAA

Mu-type opioid receptor [4] = target: T2, Mu-type opioid receptor; assay: SAR Analysis of Agonists of the MOR Receptor using an Image-Based Assay - Set 2. [Related pubchem assays (depositor defined):AID1777, AID1785, AID1786, AID1966, AID2133, AID2136, AID2284, AID2285, AID2352]; format: functional
[5] = target: T1, Kappa-type opioid receptor; assay: SAR analysis of small molecule agonists of the kappa opioid receptor via a luminescent beta-arrestin assay - Set 2. [Related pubchem assays (depositor defined):AID1777, AID1785, AID1786, AID1966, AID2133, AID2136, AID2284, AID449737]; format: functional
[6] = target: T3, Delta-type opioid receptor; assay: SAR Analysis of Antagonists of the DOR Receptor using an Image-Based Assay - Set 2. [Related pubchem assays (depositor defined):AID1777, AID1785, AID1786, AID1966, AID2133, AID2136, AID2284, AID2285, AID2357]; format: functional
[7] = target: T1, Kappa-type opioid receptor; assay: SAR analysis of Agonists of the Kappa Opioid Receptor (KOR) using an Image-Based Assay - Set 2. [Related pubchem assays (depositor defined):AID1777, AID1786, AID1966, AID2133, AID2136, AID2284, AID2285, AID2359]; format: functional
CAAX prenyl protease 1 = CAAX prenyl protease 1 (Saccharomyces cerevisiae S288c, UniProt P47154); assay: Ste24 protease inhibitors, dose response, biochemical, S. cerevisiae, plate reader, cherry-pick (AID 488815)
Chain of CAAX prenyl protease 1 (P47154 whole entry): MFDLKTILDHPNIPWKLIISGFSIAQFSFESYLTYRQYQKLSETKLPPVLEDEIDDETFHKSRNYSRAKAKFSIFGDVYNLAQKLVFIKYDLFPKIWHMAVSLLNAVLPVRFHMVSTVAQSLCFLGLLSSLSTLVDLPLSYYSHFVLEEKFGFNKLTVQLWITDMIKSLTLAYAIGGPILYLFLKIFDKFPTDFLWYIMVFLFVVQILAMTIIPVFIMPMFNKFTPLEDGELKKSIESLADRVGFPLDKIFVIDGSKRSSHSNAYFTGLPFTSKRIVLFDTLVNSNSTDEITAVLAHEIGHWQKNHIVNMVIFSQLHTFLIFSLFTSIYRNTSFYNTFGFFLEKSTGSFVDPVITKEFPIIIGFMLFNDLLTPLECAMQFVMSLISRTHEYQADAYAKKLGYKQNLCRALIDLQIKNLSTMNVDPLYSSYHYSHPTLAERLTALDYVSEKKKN

[8] = target: Voltage-gated inwardly rectifying potassium channel KCNH2 (Homo sapiens, UniProt Q12809); conditions: Potency;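 also: confirmatory quantitative high-throughput screen measuring inhibition of hERG channel activity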
Chain of Voltage-gated inwardly rectifying potassium channel KCNH2 (Q12809 whole entry): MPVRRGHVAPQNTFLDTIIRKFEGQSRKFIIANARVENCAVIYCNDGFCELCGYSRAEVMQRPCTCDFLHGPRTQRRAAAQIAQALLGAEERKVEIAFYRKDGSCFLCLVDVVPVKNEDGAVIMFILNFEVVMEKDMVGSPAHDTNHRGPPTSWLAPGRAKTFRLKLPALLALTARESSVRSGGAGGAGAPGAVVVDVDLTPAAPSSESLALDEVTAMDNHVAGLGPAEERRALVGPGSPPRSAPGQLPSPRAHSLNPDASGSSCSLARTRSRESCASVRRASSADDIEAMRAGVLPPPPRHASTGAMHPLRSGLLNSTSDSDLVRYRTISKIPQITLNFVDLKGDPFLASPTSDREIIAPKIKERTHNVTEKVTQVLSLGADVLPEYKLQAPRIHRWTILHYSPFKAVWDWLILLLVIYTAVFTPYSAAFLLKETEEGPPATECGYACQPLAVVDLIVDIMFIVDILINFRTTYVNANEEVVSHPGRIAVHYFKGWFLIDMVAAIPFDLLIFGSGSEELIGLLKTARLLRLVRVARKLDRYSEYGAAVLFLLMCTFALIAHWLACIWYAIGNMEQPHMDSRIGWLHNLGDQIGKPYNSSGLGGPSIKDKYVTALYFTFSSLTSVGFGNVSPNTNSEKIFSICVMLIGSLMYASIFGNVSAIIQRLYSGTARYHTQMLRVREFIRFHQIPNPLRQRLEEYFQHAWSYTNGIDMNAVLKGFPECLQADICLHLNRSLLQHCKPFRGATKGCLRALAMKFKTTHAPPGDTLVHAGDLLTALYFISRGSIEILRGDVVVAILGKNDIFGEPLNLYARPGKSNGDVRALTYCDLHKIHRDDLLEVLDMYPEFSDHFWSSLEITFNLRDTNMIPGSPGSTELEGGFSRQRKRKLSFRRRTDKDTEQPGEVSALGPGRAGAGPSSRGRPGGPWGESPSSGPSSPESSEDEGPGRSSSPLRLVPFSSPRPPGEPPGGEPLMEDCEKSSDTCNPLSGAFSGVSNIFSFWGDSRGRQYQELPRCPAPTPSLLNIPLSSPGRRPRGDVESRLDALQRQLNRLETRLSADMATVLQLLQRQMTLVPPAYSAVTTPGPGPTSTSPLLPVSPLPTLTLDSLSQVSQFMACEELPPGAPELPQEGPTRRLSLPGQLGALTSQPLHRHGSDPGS

CAAX prenyl protease 2 = target: T4, CAAX prenyl protease 2 (Saccharomyces cerevisiae S288c, UniProt Q03530); format: biochemical
T4 sequence (Q03530 whole entry): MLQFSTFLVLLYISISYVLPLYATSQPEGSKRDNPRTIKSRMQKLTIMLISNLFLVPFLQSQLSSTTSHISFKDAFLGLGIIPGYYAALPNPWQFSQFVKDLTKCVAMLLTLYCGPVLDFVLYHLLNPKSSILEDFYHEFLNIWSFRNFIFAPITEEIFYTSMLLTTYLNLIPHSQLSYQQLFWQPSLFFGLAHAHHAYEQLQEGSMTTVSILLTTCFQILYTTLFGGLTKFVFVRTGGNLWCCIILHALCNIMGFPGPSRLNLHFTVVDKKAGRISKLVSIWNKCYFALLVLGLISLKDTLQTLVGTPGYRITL

Cannabinoid receptor 2 [9] = target: T5, Cannabinoid receptor 2 (Homo sapiens, UniProt P34972); assay: SAR analysis of agonists of the Cannabinoid Receptor 2 using an Image-Based Assay - Set 3. [Related pubchem assays (depositor defined):AID2013, AID2026]; format: functional
T5 sequence (P34972 whole entry): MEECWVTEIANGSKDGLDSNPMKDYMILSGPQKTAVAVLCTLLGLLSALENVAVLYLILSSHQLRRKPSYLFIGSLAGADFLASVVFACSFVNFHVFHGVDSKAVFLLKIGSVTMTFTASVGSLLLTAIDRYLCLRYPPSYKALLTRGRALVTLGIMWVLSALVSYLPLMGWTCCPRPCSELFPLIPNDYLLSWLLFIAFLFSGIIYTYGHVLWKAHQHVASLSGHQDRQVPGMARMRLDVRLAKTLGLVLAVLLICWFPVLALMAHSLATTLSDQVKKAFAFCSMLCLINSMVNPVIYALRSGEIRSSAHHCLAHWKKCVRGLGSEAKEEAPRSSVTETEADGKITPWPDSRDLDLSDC

Cannabinoid receptor 1 [10] = target: T6, Cannabinoid receptor 1 (Homo sapiens, UniProt P21554); assay: SAR analysis of antagonists of the Cannabinoid Receptor 1 using an Image-Based Assay - Set 4. [Related pubchem assays (depositor defined):AID2013, AID2026]; format: functional
T6 sequence (P21554 whole entry): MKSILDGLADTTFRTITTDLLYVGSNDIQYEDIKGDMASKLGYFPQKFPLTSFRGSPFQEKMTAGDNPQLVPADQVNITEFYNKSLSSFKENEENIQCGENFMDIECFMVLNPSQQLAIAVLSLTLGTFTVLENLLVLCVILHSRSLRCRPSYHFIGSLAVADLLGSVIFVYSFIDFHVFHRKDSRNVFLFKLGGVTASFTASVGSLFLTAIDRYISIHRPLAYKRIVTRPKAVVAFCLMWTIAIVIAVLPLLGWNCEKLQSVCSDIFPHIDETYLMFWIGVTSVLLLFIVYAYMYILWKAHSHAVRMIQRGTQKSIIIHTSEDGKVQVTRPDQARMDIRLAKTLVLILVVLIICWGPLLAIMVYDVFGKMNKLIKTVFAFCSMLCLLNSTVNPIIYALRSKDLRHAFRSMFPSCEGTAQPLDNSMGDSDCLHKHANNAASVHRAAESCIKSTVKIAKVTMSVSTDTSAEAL

Cannabinoid receptor 1 [11] = target: T6, Cannabinoid receptor 1; assay: SAR analysis of agonists of the Cannabinoid Receptor 1 using an Image-Based Assay - Set 4. [Related pubchem assays (depositor defined):AID2013, AID2026]; format: functional
[12] = target: G-protein coupled receptor 55 (Homo sapiens, UniProt Q9Y2T6); assay: SAR Analysis of Selective Antagonists of GPR55 using an Image-Based Assay - Set 4. [Related pubchem assays (depositor defined):AID2013, AID2026]; format: functional;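 also: antagonism of response to 5 µM lysophosphatidylinositol agonist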
Chain of G-protein coupled receptor 55 (Q9Y2T6 whole entry): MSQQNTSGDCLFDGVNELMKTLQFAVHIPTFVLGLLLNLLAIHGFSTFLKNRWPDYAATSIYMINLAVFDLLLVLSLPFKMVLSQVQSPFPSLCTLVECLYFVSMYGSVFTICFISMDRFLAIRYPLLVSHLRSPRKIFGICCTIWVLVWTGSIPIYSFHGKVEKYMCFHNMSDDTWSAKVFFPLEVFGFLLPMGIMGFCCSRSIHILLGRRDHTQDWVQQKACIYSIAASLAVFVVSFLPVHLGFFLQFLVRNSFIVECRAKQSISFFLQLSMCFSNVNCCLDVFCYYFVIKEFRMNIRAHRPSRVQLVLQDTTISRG

[13] = target: T7, G-protein coupled receptor 35 (Homo sapiens, UniProt Q9HC97); assay: SAR analysis of Antagonists of the GPR35 Receptor using an Image-Based Assay - Set 6. [Related pubchem assays (depositor defined):AID2013, AID2026]; format: functional
T7 sequence (Q9HC97 whole entry): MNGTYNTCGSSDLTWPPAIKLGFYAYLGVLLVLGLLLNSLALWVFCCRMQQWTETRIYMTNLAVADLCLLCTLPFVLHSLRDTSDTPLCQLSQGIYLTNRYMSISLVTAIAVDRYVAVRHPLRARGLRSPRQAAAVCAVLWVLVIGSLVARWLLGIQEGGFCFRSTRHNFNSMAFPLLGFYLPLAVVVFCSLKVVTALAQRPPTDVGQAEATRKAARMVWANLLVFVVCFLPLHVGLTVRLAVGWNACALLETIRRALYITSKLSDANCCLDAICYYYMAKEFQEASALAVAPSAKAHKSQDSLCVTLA

[14] = target: T7, G-protein coupled receptor 35; assay: SAR analysis of Agonists of the GPR35 Receptor using an Image-Based Assay - Set 4. [Related pubchem assays (depositor defined):AID2013, AID2026]; format: functional
Cannabinoid receptor 2 [15] = target: T5, Cannabinoid receptor 2; assay: SAR analysis of antagonists of the Cannabinoid Receptor 2 using an Image-Based Assay - Set 3. [Related pubchem assays (depositor defined):AID2013, AID2026]; format: functional
[16] = target: T8, Voltage-gated N-type calcium channel alpha-1B subunit/Amyloid beta A4 precursor protein-binding family A member 1 (Homo sapiens, UniProt Q00975+Q02410); format: protein assay
[17] = target: E3 ubiquitin-protein ligase XIAP (Homo sapiens, UniProt P98170); assay: Counter Screen using XIAP-Bir3 for Chemical Antagonists of Bir1/2 domains of IAP-family anti-apoptotic proteins. [Related pubchem assays (depositor defined):AID1018, AID1449, AID1514, AID1638, AID1749, AID1750, AID488957, AID488963]
Chain of E3 ubiquitin-protein ligase XIAP (P98170 whole entry): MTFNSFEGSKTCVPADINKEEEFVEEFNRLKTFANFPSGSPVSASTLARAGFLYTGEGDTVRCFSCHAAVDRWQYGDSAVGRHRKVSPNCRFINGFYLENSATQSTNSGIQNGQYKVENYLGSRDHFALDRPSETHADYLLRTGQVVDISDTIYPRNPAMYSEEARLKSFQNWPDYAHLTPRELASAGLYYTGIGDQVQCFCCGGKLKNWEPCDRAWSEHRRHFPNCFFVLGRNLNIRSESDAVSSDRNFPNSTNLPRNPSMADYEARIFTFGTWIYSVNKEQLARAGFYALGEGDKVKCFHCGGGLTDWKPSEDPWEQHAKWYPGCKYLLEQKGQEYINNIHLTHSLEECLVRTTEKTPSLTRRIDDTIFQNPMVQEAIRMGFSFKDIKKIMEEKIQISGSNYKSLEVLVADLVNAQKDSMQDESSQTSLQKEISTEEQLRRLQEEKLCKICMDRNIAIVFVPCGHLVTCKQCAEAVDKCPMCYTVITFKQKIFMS

[18] = target: T8, Voltage-gated N-type calcium channel alpha-1B subunit/Amyloid beta A4 precursor protein-binding family A member 1; format: protein assay; remark: listed apart in the source
Hexokinase HKDC1 = target: T9, Hexokinase HKDC1 (Homo sapiens, UniProt Q2TB90); assay: HKDC1 hexokinase activators, dose response, biochemical, W721R variant (AID 504730); format: functional
T9 sequence (Q2TB90 whole entry): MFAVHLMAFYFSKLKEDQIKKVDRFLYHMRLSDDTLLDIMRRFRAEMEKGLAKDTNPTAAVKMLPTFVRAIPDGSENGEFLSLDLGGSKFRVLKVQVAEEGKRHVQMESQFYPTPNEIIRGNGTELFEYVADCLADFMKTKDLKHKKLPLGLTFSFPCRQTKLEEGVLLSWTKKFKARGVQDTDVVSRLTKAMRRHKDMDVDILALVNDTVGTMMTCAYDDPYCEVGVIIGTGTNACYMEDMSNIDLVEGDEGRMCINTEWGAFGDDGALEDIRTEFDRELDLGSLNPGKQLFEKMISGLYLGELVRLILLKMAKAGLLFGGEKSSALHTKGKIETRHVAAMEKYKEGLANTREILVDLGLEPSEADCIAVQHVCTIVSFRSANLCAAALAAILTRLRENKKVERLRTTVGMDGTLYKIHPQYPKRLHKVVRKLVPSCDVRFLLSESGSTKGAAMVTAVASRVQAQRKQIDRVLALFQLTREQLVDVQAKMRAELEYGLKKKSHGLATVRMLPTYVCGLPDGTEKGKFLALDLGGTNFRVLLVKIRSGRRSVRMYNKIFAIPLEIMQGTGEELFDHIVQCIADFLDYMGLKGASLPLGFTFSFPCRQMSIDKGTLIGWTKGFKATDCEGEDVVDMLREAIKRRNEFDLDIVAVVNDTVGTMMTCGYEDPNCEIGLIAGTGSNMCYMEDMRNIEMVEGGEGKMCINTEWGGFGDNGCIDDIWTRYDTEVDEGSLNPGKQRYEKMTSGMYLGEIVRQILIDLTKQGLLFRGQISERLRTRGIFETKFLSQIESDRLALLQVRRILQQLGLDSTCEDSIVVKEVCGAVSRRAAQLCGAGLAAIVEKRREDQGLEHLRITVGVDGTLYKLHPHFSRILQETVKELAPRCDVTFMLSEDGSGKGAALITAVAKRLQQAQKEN

Hexokinase-1 = target: T10, Hexokinase-1 (Homo sapiens, UniProt P19367); assay: hexokinase 1 activators, dose response, selectivity assay for HKDC1 activator project, biochemical (AID 504762); format: functional
T10 sequence (P19367 whole entry): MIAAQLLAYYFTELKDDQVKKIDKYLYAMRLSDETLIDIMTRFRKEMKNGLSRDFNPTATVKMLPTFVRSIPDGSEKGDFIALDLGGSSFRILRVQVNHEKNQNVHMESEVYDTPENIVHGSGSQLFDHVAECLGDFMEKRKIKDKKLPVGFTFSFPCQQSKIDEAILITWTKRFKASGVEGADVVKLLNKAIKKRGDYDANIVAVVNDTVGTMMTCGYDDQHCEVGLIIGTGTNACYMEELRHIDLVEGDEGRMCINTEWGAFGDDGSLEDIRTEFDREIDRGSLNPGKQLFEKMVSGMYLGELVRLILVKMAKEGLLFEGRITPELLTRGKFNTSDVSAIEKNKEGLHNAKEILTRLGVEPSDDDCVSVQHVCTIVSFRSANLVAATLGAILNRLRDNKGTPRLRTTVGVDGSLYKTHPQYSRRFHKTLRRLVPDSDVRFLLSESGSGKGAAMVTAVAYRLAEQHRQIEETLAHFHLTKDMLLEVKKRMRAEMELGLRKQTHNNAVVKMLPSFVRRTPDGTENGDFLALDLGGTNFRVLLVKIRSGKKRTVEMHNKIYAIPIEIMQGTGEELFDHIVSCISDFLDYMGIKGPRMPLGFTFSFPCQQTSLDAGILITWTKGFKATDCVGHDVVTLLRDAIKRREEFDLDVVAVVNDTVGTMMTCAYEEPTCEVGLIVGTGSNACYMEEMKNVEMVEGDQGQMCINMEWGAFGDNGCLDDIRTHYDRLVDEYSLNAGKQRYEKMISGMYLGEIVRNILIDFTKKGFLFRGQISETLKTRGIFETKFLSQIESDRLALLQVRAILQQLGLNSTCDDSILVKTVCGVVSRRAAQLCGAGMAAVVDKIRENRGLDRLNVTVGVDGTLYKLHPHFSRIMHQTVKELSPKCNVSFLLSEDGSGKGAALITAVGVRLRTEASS

IC50 [1]: > 32 µM (inactive) | IC50 (Mu-type opioid receptor [2]): > 32 µM (inactive) | EC50 [3]: > 32 µM (inactive) | EC50 (Mu-type opioid receptor [4]): > 32 µM (inactive) | EC50 [5]: 3.59 µM (active) | IC50 [6]: > 32 µM (inactive) | EC50 [7]: 2.38 µM (active)
SMILES: Cc1ccc(CSc2nnc(-c3ccccn3)n2Cc2cccs2)cc1

AC50 (CAAX prenyl protease 1): 7.7 µM (active) | AC50 (CAAX prenyl protease 2): 15.3 µM (active)
SMILES: CC(CCc1ccccc1)NCC(O)c1ccc(O)c(C(N)=O)c1 (configuration not stated) [LABETALOL HYDROCHLORIDE]
AC50 [8]: 15.8 µM (inconclusive)

Second part, the compound before the results:

SMILES: Cc1nc(N2CCN(C(=O)COc3ccccc3C)CC2)c2c3c(sc2n1)CCCC3
EC50 (Cannabinoid receptor 2 [9]): > 32 µM (inactive) | IC50 (Cannabinoid receptor 1 [10]): 2.22 µM (active) | EC50 (Cannabinoid receptor 1 [11]): > 32 µM (inactive) | IC50 [12]: 13.1 µM (inactive) | IC50 [13]: > 32 µM (inactive) | EC50 [14]: > 32 µM (inactive) | IC50 (Cannabinoid receptor 2 [15]): > 13.1 µM (inactive)

SMILES: O=C(Nc1ccc(S(=O)(=O)N2CCOCC2)cc1)c1ccc(O)nc1
IC50 [16]: 7.16 µM (active) | IC50 [17]: > 20 µM (inactive) | IC50 [18]: > 50 µM (inactive)

SMILES: CC(=O)N1CCN(C2c3cccc4cccc(c34)C2NS(=O)(=O)c2ccccc2)CC1 (configuration not stated)
EC50 (Hexokinase HKDC1): 48.9 µM (inactive) | EC50 (Hexokinase-1): 29.4 µM (inactive)
